The values below come from ChEMBL document CHEMBL5653631, “A Potent and Selective ULK1 Inhibitor Suppresses Autophagy and Sensitizes Cancer Cells to Nutrient Stress” (iScience, 2018).

The target of experiment [1] is Cyclin-dependent kinase 4 (Homo sapiens) (UniProt P11802). In words: Inhibition of human recombinant CDK4 at 15 nM in presence of ATP by radiometric assay relative to control.
Experiment [2] concerns the target T1, cGMP-dependent protein kinase 1 (Homo sapiens) (UniProt Q13976).
T1 sequence (whole entry): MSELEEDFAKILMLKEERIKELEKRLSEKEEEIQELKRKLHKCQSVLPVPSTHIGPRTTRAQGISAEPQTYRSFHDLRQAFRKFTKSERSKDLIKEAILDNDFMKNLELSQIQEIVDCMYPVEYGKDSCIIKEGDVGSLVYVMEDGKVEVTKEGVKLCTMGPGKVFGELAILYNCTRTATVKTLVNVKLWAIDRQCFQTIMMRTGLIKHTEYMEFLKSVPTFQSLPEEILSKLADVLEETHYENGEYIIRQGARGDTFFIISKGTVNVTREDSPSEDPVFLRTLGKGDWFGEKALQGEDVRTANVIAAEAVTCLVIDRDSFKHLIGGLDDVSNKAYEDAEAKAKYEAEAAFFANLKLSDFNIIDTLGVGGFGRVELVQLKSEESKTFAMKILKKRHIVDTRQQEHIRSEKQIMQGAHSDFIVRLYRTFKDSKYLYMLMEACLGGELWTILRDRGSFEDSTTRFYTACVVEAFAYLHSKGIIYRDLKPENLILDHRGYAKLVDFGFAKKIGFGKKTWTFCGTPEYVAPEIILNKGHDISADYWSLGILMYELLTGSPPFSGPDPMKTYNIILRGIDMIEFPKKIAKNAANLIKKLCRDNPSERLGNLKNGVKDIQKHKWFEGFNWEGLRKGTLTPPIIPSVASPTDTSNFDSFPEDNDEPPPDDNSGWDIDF
In words: Inhibition of human recombinant PKG1 at 15 nM in presence of ATP by radiometric assay relative to control.

The target in experiment [3] is T2, Tyrosine-protein kinase receptor TYRO3 (Homo sapiens) (UniProt Q06418).
T2 sequence (whole entry): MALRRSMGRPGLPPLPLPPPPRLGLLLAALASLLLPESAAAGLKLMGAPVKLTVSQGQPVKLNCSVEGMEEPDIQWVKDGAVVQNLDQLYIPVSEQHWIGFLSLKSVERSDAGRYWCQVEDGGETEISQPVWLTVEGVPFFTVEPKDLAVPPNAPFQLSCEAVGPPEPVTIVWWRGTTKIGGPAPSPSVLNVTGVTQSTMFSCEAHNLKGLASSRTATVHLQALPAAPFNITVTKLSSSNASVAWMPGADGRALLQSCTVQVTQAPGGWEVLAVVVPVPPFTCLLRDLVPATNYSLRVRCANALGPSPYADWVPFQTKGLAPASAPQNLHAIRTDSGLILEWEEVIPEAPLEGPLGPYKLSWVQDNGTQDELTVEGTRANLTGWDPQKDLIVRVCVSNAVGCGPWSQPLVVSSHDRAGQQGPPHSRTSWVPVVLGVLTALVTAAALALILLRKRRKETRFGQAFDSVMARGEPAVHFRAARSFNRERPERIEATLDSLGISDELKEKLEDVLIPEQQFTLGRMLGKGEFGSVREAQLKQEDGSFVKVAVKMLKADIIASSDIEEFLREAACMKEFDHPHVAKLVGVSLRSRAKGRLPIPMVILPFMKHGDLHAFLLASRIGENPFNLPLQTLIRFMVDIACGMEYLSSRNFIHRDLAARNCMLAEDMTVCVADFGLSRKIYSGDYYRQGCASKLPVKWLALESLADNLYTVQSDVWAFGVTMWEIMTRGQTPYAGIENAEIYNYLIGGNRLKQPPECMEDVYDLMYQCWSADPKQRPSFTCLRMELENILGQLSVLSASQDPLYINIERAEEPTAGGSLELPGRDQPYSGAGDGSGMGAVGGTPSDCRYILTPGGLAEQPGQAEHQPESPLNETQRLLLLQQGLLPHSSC
Nature of the experiment: Inhibition of human recombinant TYRO3 at 15 nM in presence of ATP by radiometric assay relative to control.

Experiment [4] concerns the target T3, Receptor-interacting serine/threonine-protein kinase 1 (Homo sapiens) (UniProt Q13546).
T3 sequence (whole entry): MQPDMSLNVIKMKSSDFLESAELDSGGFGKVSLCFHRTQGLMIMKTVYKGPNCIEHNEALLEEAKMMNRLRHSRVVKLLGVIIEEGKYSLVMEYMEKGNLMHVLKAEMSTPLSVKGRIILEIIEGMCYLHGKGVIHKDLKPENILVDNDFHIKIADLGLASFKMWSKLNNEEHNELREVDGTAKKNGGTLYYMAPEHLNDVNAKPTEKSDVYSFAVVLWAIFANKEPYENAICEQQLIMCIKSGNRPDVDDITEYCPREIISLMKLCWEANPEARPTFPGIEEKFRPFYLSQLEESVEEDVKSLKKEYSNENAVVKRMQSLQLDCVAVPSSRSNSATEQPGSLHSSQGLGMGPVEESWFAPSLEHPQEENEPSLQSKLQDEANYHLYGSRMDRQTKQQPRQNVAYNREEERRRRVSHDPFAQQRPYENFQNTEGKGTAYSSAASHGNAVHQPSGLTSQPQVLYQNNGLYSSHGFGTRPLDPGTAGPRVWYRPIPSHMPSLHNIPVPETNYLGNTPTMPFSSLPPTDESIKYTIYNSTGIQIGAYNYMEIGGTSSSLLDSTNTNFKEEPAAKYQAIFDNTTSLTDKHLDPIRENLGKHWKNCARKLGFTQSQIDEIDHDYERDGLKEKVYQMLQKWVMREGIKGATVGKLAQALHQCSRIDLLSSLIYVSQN
In words: Inhibition of human recombinant RIPK1 at 15 nM related to control ULK1.

The target of experiment [5] is Serine/threonine-protein kinase Nek7 (Homo sapiens) (UniProt Q8TDX7). In words: Inhibition of human recombinant NEK7 at 40 nM in presence of ATP by radiometric assay relative to control.
Chain of Serine/threonine-protein kinase Nek7 (Homo sapiens) (Q8TDX7 whole entry, looked up): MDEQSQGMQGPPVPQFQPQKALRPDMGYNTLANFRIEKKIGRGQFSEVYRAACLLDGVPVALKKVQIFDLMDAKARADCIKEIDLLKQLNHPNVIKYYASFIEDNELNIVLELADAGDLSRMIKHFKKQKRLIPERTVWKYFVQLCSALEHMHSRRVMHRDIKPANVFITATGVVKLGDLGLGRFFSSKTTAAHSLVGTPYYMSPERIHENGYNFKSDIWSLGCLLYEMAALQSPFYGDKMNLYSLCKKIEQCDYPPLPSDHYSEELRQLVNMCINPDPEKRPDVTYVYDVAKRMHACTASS
The target of experiment [6] is Ribosomal protein S6 kinase alpha-5 (Homo sapiens) (UniProt O75582). In words: Inhibition of human recombinant MSK1 at 500 nM in presence of ATP by radiometric assay relative to control.
Chain of Ribosomal protein S6 kinase alpha-5 (Homo sapiens) (O75582 whole entry, looked up): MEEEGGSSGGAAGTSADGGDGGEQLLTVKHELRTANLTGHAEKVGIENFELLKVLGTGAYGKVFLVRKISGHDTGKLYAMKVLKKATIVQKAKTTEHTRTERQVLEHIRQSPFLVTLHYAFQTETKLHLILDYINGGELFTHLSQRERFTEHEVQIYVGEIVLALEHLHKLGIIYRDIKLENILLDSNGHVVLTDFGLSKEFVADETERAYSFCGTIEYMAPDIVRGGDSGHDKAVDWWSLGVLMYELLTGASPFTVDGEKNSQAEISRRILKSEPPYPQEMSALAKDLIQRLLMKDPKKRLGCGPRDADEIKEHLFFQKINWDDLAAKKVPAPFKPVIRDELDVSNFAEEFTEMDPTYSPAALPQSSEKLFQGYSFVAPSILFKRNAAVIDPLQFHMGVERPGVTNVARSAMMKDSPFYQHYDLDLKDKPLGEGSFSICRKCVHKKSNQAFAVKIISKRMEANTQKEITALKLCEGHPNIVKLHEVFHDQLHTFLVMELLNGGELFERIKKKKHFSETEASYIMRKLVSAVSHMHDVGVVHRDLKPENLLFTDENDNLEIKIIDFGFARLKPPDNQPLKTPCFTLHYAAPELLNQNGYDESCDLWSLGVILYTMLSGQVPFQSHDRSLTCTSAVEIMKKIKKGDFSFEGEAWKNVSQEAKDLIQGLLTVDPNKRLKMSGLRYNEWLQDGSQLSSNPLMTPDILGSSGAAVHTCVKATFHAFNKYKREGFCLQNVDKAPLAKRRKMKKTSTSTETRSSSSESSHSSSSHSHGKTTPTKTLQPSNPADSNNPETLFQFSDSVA

Chain of Cyclin-dependent kinase 4 (Homo sapiens) (P11802 whole entry): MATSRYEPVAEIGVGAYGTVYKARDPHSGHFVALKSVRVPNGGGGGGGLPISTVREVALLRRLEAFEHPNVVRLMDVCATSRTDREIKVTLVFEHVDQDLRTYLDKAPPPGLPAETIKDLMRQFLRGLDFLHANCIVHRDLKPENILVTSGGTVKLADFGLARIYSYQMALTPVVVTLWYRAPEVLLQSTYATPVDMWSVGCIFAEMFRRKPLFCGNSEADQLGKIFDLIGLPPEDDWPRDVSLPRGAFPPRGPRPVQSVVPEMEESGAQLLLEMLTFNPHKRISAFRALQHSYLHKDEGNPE

By inhibition is commonly meant the drop in the measured response relative to a control, in per cent. Regarding `CC(C)[C@H](NC(=O)c1cc(-c2cnn3cc(-c4ccc(OCCN5CCCCC5)cc4)cnc23)cs1)C(F)(F)F`, the inhibition in experiment [1] was found to be 11%; in experiment [2], 0%; in experiment [3] it was 0%. For the same compound, in experiment [4], the fold change (FC) came out at 0.01.

As for `O=C(N[C@@H](C1CC1)C(F)(F)F)c1cc(-c2cnn3cc(-c4ccc(F)cc4)cnc23)cs1`, the inhibition in experiment [5] amounted to 0%.

Turning to `CNC(=O)c1ccccc1Oc1nc(Nc2cc(OC)c(OC)c(OC)c2)ncc1Br`, the inhibition in experiment [6] is 11%.
